From paper PMC8703412 (Pharmaceuticals, 2021)
In brackets after ≈: the same amount, converted by molar mass. Like-named read-outs stand apart in the source and are kept apart here.

Tests used:
HepG2 cells = assay: Cytotoxicity, CellTiter 96 (MTS) assay; conditions: read-out: Cytotoxicity for HepG2 cells, IC50; 24 h incubation, 1–1000 µM
[1] = system: Mycobacterium tuberculosis strain 331/88 (i.e., H37Rv); assay: MIC micromethod in Šula's medium, drug-susceptible Mtb.; type: cell-based
[2] = system: Mycobacterium avium 330/88; assay: MIC micromethod in Šula's medium, M. avium; type: cell-based
[3] = system: Mycobacterium kansasii 6509/96 (clinical isolate); assay: MIC micromethod in Šula's medium, M. kansasii; type: cell-based
[4] = Cytotoxicity, CellTiter 96 (MTS) assay; conditions: human, Cytotoxicity for HepG2 cells, IC50, 24 h incubation, 1–1000 µM
[5] = system: Mtb. H37Ra pVV16-katGsmeg; assay: microbe, parasite or virus in culture; type: cell-based; conditions: Mycobacterium tuberculosis, 672 h, read-out: MIC H37Ra pVV16-katGsmeg
Mtb. H37Ra pMV261/pVV16 = assay: microbe, parasite or virus in culture; type: cell-based, Mycobacterium tuberculosis; conditions: for MIC: Mycobacterium tuberculosis, H37RA, 672 h, read-out: MIC H37Ra pMV261/pVV16
Mtb. H37Ra pMV261-inhA = assay: microbe, parasite or virus in culture; type: cell-based, Mycobacterium tuberculosis; conditions: for MIC: Mycobacterium tuberculosis, H37RA, 672 h, read-out: MIC H37Ra pMV261-inhA
[6] = Solubility in the cytotoxicity concentration range; type: physicochemical; conditions: cytotoxicity assay medium, DMSO max 1% v/v
Protocol: The cells were seeded in a density 15,000 cells per well in a 96-well plate. The next day the cells were treated with each of the tested substances at a broad range of concentrations (1–1000 µM) in triplicates; the compounds were dissolved in DMSO (maximal incubation concentration of DMSO was 1% v/v). The controls representing 100% cell viability, 0% cell viability (the cells treated with 10% DMSO), no cell control and vehiculum controls were incubated in parallel, also as triplicates. After 24 h of incubation in a humidified atmosphere containing 5% CO2 at 37 °C, the reagent from the kit CellTiter 96 AQueous One Solution Cell Proliferation Assay (CellTiter 96; PROMEGA, Fitchburg, WI, USA) was added. After 2 h incubation at 37 °C, absorbance of samples was recorded at 490 nm (TECAN, Infinita M200, Grödig, Austria). A standard toxicological parameter IC50 was calculated by nonlinear regression from a semilogarithmic plot of incubation concentration versus percentage of absorbance relative to untreated controls using GraphPad Prism 8 software (GraphPad Software, Inc., La Jolla, CA, USA).
Cytotoxicity was quantified using the standard parameter IC50 (Figure 3).

[7] = system: Mycobacterium kansasii 6509/96 (clinical isolate); set-up: method as in PMID 34198149; conditions: cited from earlier work
[8] = system: Mycobacterium tuberculosis strain 331/88 (i.e., H37Rv); set-up: method as in PMID 34198149; conditions: cited from earlier work
[9] = system: Mycobacterium avium 330/88; set-up: method as in PMID 34198149; conditions: cited from earlier work
[10] = Mycobacterium tuberculosis, H37RV, 336 h, 14 d incubation, esters, Table 1, read-out: MIC Mtb. 331/88 14 d
[11] = Mycobacterium tuberculosis, H37RV, 504 h, 21 d incubation, esters, Table 1, read-out: MIC Mtb. 331/88 21 d
[12] = Mycobacterium avium, 330/88, 336 h, 14 d incubation, Table 1, read-out: MIC M. avium 330/88 14 d
[13] = Mycobacterium avium, 330/88, 504 h, 21 d incubation, Table 1, read-out: MIC M. avium 330/88 21 d
[14] = Mycobacterium kansasii, 168 h, 7 d incubation, Table 1, read-out: MIC M. kansasii 6509/96 7 d
[15] = Mycobacterium kansasii, 336 h, 14 d incubation, Table 1, read-out: MIC M. kansasii 6509/96 14 d
[16] = Mycobacterium kansasii, 504 h, 21 d incubation, Table 1, read-out: MIC M. kansasii 6509/96 21 d
[17] = Mycobacterium kansasii, 504 h, text summary over 7, 14 and 21 d, read-out: MIC for M. kansasii 6509/96
[18] = Mycobacterium tuberculosis, H37RV, Table 4, read-out: MIC H37Rv
[19] = Mycobacterium avium, 330/88, 504 h, 14 and 21 d, read-out: MIC for M. avium

| Molecule | IC50 (HepG2 cells) | IC50 at 24 h [4] | MIC [1, 10] | MIC [1, 11] | MIC [2, 12] | MIC [2, 13] | melting point | MIC [3, 14] | MIC [3, 15] | MIC [3, 16] | MIC [3, 17] | MIC [5] | MIC [1, 18] | MIC H37Ra pMV261/pVV16 (Mtb. H37Ra pMV261/pVV16) | MIC (Mtb. H37Ra pMV261/pVV16) | MIC H37Ra pMV261-inhA (Mtb. H37Ra pMV261-inhA) | MIC (Mtb. H37Ra pMV261-inhA) | further results |
| --- | --- | --- | --- | --- | --- | --- | --- | --- | --- | --- | --- | --- | --- | --- | --- | --- | --- | --- |
| 5-Isopropyl-2-methylphenyl (E)-2-(2-isonicotinoylhydrazineylidene)propanoate [3k] | > 500 µM |  |  |  |  |  |  |  |  |  |  |  |  |  |  |  |  | MIC ([1]; 14 d incubation, esters, Table 1, read-out: MIC Mtb. 331/88 14 d): 0.25 µM; MIC ([1]; 21 d incubation, esters, Table 1, read-out: MIC Mtb. 331/88 21 d): 0.25 µM; MIC ([2]; 14 d incubation, Table 1, read-out: MIC M. avium 330/88 14 d): 500 µM; MIC ([2]; 21 d incubation, Table 1, read-out: MIC M. avium 330/88 21 d): 1000 µM; MIC ([3]; 7 d incubation, Table 1, read-out: MIC M. kansasii 6509/96 7 d): 8 µM; MIC ([3]; 14 d incubation, Table 1, read-out: MIC M. kansasii 6509/96 14 d): 16 µM; MIC ([3]; 21 d incubation, Table 1, read-out: MIC M. kansasii 6509/96 21 d): 16 µM; fold lower activity than isomer 3l ([3]; M. kansasii 6509/96): 64 × |
| C/C(=N\NC(=O)c1ccncc1)C(=O)Oc1ccc(Oc2ccccc2)cc1 [3e, 4-Phenoxyphenyl (E)-2-(2-isonicotinoylhydrazineylidene)propanoate] | > 500 µM | 551 µM | ≤ 0.125 µM | 0.5 µM (≈ 0.188 µg/mL) | 250 µM (≈ 93.8 µg/mL) | 500 µM (≈ 188 µg/mL) | 152.4 to 155 °C | 2 µM (≈ 0.751 µg/mL) | 4 µM (≈ 1.5 µg/mL) | 4 µM (≈ 1.5 µg/mL) |  |  |  |  |  |  |  |  |
| C/C(=N\NC(=O)c1ccncc1)C(=O)Oc1cccc2ccccc12 [3i, Naphthalen-1-yl (E)-2-(2-isonicotinoylhydrazineylidene)propanoate] | > 500 µM | 999 µM | 0.25 µM (≈ 0.0833 µg/mL) | 0.25 µM (≈ 0.0833 µg/mL) | 125 µM (≈ 41.7 µg/mL) | 250 µM (≈ 83.3 µg/mL) | 181.1 to 182.5 °C | 0.25 µM (≈ 0.0833 µg/mL) | 0.25 µM (≈ 0.0833 µg/mL) | 0.25 µM (≈ 0.0833 µg/mL) | ≤ 0.5 µM |  |  |  |  |  |  |  |
| C/C(=N\NC(=O)c1ccncc1)C(=O)Oc1ccc2ccccc2c1 [3j, Naphthalen-2-yl (E)-2-(2-isonicotinoylhydrazineylidene)propanoate] | > 500 µM | 682 µM | 0.25 µM (≈ 0.0833 µg/mL) | 0.25 µM (≈ 0.0833 µg/mL) | 125 µM (≈ 41.7 µg/mL) | 250 µM (≈ 83.3 µg/mL) | 116 to 117.2 °C | 0.25 µM (≈ 0.0833 µg/mL) | 0.25 µM (≈ 0.0833 µg/mL) | 0.5 µM (≈ 0.167 µg/mL) | ≤ 0.5 µM |  |  |  |  |  |  |  |
| C/C(=N\NC(=O)c1ccncc1)C(=O)Oc1cc(C(C)C)ccc1C [3l, 2-Isopropyl-5-methyphenyl (E)-2-(2-isonicotinoylhydrazineylidene)propanoate] |  | > 1000 µM | 0.25 µM (≈ 0.0848 µg/mL) | 0.25 µM (≈ 0.0848 µg/mL) | 125 µM (≈ 42.4 µg/mL) | 250 µM (≈ 84.8 µg/mL) |  | 0.25 µM (≈ 0.0848 µg/mL) | 0.25 µM (≈ 0.0848 µg/mL) | 0.25 µM (≈ 0.0848 µg/mL) | ≤ 0.5 µM | 0.05 to 0.125 µM (≈ 0.017 to 0.0424 µg/mL) | 0.25 µM (≈ 0.0848 µg/mL) | 0.25 | 0.25 µM (≈ 0.0848 µg/mL) | 5 µM | 5 µM (≈ 1.7 µg/mL) |  |
| C/C(=N\NC(=O)c1ccncc1)C(=O)Oc1cccc2cccnc12 [3m, Quinolin-8-yl (E)-2-(2-isonicotinoylhydrazineylidene)propanoate] |  | 247 µM | 0.25 µM (≈ 0.0836 µg/mL) | 0.5 µM (≈ 0.167 µg/mL) | 32 µM (≈ 10.7 µg/mL) | 64 µM (≈ 21.4 µg/mL) | 159.3 to 160.4 °C | 2 µM (≈ 0.669 µg/mL) | 4 µM (≈ 1.34 µg/mL) | 4 µM (≈ 1.34 µg/mL) |  | 0.125 µM (≈ 0.0418 µg/mL) | 0.25 µM (≈ 0.0836 µg/mL) | 0.25 | 0.25 µM (≈ 0.0836 µg/mL) | 5 µM | 5 µM (≈ 1.67 µg/mL) | MIC [2, 19]: 32 to 64 µM (≈ 10.7 to 21.4 µg/mL) |
| C/C(=N\NC(=O)c1ccncc1)C(=O)Oc1cc(Cl)ccc1Oc1ccc(Cl)cc1Cl [3o, 5-Chloro-2-(2,4-dichlorophenoxy)phenyl (E)-2-(2-isonicotinoylhydrazineylidene)propanoate] |  | 211 µM | ≤ 0.125 µM | ≤ 0.125 µM | 64 µM (≈ 30.6 µg/mL) | 64 µM (≈ 30.6 µg/mL) | 153 to 155 °C | 4 µM (≈ 1.91 µg/mL) | 4 µM (≈ 1.91 µg/mL) | 8 µM (≈ 3.83 µg/mL) |  | 0.125 µM (≈ 0.0598 µg/mL) | 0.125 µM (≈ 0.0598 µg/mL) | 0.325 | 0.325 µM (≈ 0.156 µg/mL) | 6 µM | 6.25 µM (≈ 2.99 µg/mL) | MIC [2, 19]: 32 to 64 µM (≈ 15.3 to 30.6 µg/mL); solubility in the concentration range of 1–1000 μM [6]: without any solubility problem |
| C/C(=N\NC(=O)c1ccncc1)C(=O)Sc1ccccc1 [3s, S-Phenyl (E)-2-(2-isonicotinoylhydrazineylidene)propanethioate] |  | 182 µM | 0.25 µM (≈ 0.0748 µg/mL) | 0.25 µM (≈ 0.0748 µg/mL) | 250 µM (≈ 74.8 µg/mL) | 250 µM (≈ 74.8 µg/mL) | 186 to 187 °C | 1 µM (≈ 0.299 µg/mL) | 2 µM (≈ 0.599 µg/mL) | 4 µM (≈ 1.2 µg/mL) |  |  |  |  |  |  |  |  |
| C/C(=N\NC(=O)c1ccncc1)C(=O)O [compound 2, (E)-2-(2-isonicotinoylhydrazineylidene)propanoic acid] |  |  |  |  |  |  |  |  |  |  |  |  |  |  |  |  |  | MIC M. kansasii 6509/96 7 d ([7]; 7 d incubation): 8 µM (≈ 1.66 µg/mL); MIC M. kansasii 6509/96 14 d ([7]; 14 d incubation): 16 µM (≈ 3.32 µg/mL); MIC M. kansasii 6509/96 21 d ([7]; 21 d incubation): 16 µM (≈ 3.32 µg/mL); MIC Mtb. 331/88 14 d ([8]; 14 d incubation): 1 µM (≈ 0.207 µg/mL); MIC Mtb. 331/88 21 d ([8]; 21 d incubation): 1 µM (≈ 0.207 µg/mL); MIC M. avium 330/88 14 d ([9]; 14 d incubation): 500 µM (≈ 104 µg/mL); MIC M. avium 330/88 21 d ([9]; 21 d incubation): >1000 µM |
